For orientation: IC50 means the midpoint of a concentration-inhibition curve.

This assay concerns the target T1, endothelial lipase (EL) (Homo sapiens, UniProt Q9Y5X9).
T1 construct: HT-1080 cells, which were transformed by RAGE technology (Athersys) to overexpress endogenous EL; endogenous in cells; conditioned medium used as the enzyme source
T1 sequence (Q9Y5X9 21-500): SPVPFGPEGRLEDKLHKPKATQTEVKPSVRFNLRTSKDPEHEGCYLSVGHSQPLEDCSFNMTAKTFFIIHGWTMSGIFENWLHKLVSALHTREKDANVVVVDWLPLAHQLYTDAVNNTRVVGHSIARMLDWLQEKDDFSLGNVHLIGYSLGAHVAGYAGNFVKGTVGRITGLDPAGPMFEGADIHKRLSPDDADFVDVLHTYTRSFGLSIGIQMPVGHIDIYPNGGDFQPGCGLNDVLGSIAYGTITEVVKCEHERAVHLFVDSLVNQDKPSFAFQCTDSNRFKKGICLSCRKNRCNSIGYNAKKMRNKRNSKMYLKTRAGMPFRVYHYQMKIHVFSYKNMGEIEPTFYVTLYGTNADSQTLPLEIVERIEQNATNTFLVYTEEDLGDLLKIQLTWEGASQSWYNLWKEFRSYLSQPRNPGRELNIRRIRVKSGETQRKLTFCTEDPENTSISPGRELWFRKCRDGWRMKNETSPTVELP
The assay can be described thus: Endothelial lipase (EL) enzymatic assay with fluorescent substrate A10070 in DMPG vesicles. It counts as biochemical. The settings on record: conditioned media from HT-1080 cells overexpressing endogenous EL; 20 min preincubation at 37° C.; read-out: HLE_EL_CRC IC50. The method, then:
Endothelial lipase activity was measured using a fluorescent substrate, A10070, (Invitrogen, CA) doped into an artificial vesicle containing DMPG (Avanti Polar Lipids) as the excipient. Vesicles were prepared by combining 285 uL of 1 mM DMPG in a 1:1 mixture of MeOH and CHCl3 with 15 uL of 1 mM A10070 in a 1:1 mixture of MeOH and CHCl3. The mixture was dried under nitrogen and resuspended in 150 uL of 50 mM HEPES pH 8.0 buffer containing 100 mM NaCl and 0.2 mM EDTA. The sample was allowed to sit at rt for 15 min and then was sonicated 3×4 mins on ice with a Branson Sonicator using duty cycle 1. This preparation provides vesicles with a mole fraction of 0.05 for the FRET substrate.
The enzymatic assay was measured using white, opaque 96-well half area plates. Each well contained 60 uL of assay buffer (50 mM HEPES pH 8.0, 50 mM NaCl and 1 mM CaCl2) and 2 ul of a DMSO solution containing compound of interest. Conditioned media obtained from HT-1080 cells, which were transformed by RAGE technology (Athersys) to overexpress endogenous EL, was added and the reaction was allowed to incubate for 20 min at 37° C. with gentle agitation. The reaction was started by the addition of 20 uL of a 1:4 dilution of vesicles. The final total reaction volume was 100 uL. The reaction rates were measured on a Gemini plate reader with an excitation wavelength of 488 nm and a emission of 530 nm. Readings were taken every 20 seconds for 10 min with agitation between each reading. The slope of the linear portion of the readout was used to calculate the rate of the reaction.
As for `O=C(NCCCc1ccc(Cl)c(Cl)c1)C1=C(O)C(=O)N(CC2CCCCC2)C1` [Example 48, 1-(cyclohexylmethyl)-N-(3-(3,4-dichlorophenyl)propyl)-4-hydroxy-5-oxo-2,5-dihydro-1H-pyrrole-3-carboxamide], the IC50 was 5.73 nM.

Take `O=C(NCCCc1ccc(Cl)c(Cl)c1)C1=C(O)C(=O)N(CCOc2ccccc2)C1` [Example 61, N-(3-(3,4-dichlorophenyl)propyl)-4-hydroxy-5-oxo-1-(2-phenoxyethyl)-2,5-dihydro-1H-pyrrole-3-carboxamide]: the IC50 was found to be 5.44 nM.

As to `CCOC(=O)[C@H](Cc1ccccc1)N1CC(C(=O)NCCCc2ccc(Cl)c(Cl)c2)=C(O)C1=O` [Example 138, (S)-ethyl 2-(4-(3-(3,4-dichlorophenyl)propylcarbamoyl)-3-hydroxy-2-oxo-2,5-dihydro-1H-pyrrol-1-yl)-3-phenylpropanoate], the IC50 was 526 nM.

For `CCN1CC(C(=O)NCCCc2ccc(Cl)c(Cl)c2)=C(NCCCc2ccc(Cl)c(Cl)c2)C1=O` [Example 179, N-(3-(3,4-dichlorophenyl)propyl)-4-(3-(3,4-dichlorophenyl)-propylamino)-1-ethyl-5-oxo-2,5-dihydro-1H-pyrrole-3-carboxamide], the IC50 was found to be 546 nM.

On to `CCN1CC(C(=O)NCCc2ccc(S(N)(=O)=O)cc2)=C(O)C1=O` [Example 181, 1-ethyl-4-hydroxy-5-oxo-N-(4-sulfamoylphenethyl)-2,5-dihydro-1H-pyrrole-3-carboxamide], for which the IC50 was found to be 581 nM.

Take `CCN1CC(C(=O)NCCCN(C)c2ccccc2)=C(O)C1=O` [Example 182, 1-ethyl-4-hydroxy-N-(3-(methyl(phenyl)amino)propyl)-5-oxo-2,5-dihydro-1H-pyrrole-3-carboxamide]: the IC50 was determined as 3650 nM.

`CC1C(C(=O)NCCCc2ccc(Cl)c(Cl)c2)=C(O)C(=O)N1CCOc1ccccc1` (centres unmarked) [Example 194, N-(3-(3,4-dichlorophenyl)propyl)-4-hydroxy-2-methyl-5-oxo-1-(2-phenoxyethyl)-2,5-dihydro-1H-pyrrole-3-carboxamide]: the IC50 came to 466 nM.

Regarding `CN1CC(C(=O)NC(CCc2ccc(Cl)c(Cl)c2)C2CC2)=C(O)C1=O` (centres unmarked) [Example 232, N-(1-cyclopropyl-3-(3,4-dichlorophenyl)propyl)-4-hydroxy-1-methyl-5-oxo-2,5-dihydro-1H-pyrrole-3-carboxamide], the concentration for half-maximal inhibition (IC50) came to 5460 nM.

Regarding `CN1CC(C(=O)NC(CCc2ccc(Cl)c(Cl)c2)C2CC2)=C(O)C1=O` (centres unmarked) [Example 233, N-(1-cyclopropyl-3-(3,4-dichlorophenyl)propyl)-4-hydroxy-1-methyl-5-oxo-2,5-dihydro-1H-pyrrole-3-carboxamide], the IC50 came to 6280 nM.

With `C=CC(CCc1ccc(Cl)c(Cl)c1)NC(=O)C1=C(O)C(=O)N(C)C1` (centres unmarked) [Example 236, N-(5-(3,4-dichlorophenyl)pent-1-en-3-yl)-4-hydroxy-1-methyl-5-oxo-2,5-dihydro-1H-pyrrole-3-carboxamide], the half-inhibitory concentration (IC50) came to 493 nM.

For the compound `Cc1nc2cc(C#CCNC(=O)C3=C(O)C(=O)N(C)C3)ccc2s1` [Example 247, 4-hydroxy-1-methyl-N-(3-(2-methylbenzo[d]thiazol-5-yl)prop-2-ynyl)-5-oxo-2,5-dihydro-1H-pyrrole-3-carboxamide], the half-inhibitory concentration (IC50) was 8380 nM.

In the case of `Cc1ccc(C#CCNC(=O)C2=C(O)C(=O)N(C)C2)cc1C(F)(F)F` [Example 248, 4-hydroxy-1-methyl-N-(3-(4-methyl-3-(trifluoromethyl)phenyl)prop-2-ynyl)-5-oxo-2,5-dihydro-1H-pyrrole-3-carboxamide], the half-maximal inhibitory concentration (IC50) came to 4660 nM.

Consider `CC(CCc1ccc(Cl)c(Cl)c1)NC(=O)C1=C(O)C(=O)N(Cc2c[nH]nn2)C1` (centres unmarked) [Example 272, 1-((1H-1,2,3-triazol-4-yl)methyl)-N-(4-(3,4-dichlorophenyl)butan-2-yl)-4-hydroxy-5-oxo-2,5-dihydro-1H-pyrrole-3-carboxamide], for which the IC50 stood at 3440 nM.

For the compound `CC(CCc1ccc(Cl)c(Cl)c1)NC(=O)C1=C(O)C(=O)N(CCNC(=O)c2cc(F)cc(C(F)(F)F)c2)C1` (centres unmarked) [Example 273, N-(4-(3,4-dichlorophenyl)butan-2-yl)-1-(2-(3-fluoro-5-(trifluoromethyl)benzamido)ethyl)-4-hydroxy-5-oxo-2,5-dihydro-1H-pyrrole-3-carboxamide], the IC50 amounted to 2680 nM.

On to `CC(=O)N(C)CCN1CC(C(=O)NC(C)CCc2ccc(Cl)c(Cl)c2)=C(O)C1=O` (centres unmarked) [Example 280, N-(4-(3,4-dichlorophenyl)butan-2-yl)-4-hydroxy-1-(2-(N-methylacetamido)ethyl)-5-oxo-2,5-dihydro-1H-pyrrole-3-carboxamide], for which the IC50 was 7300 nM.

Regarding `CCN1CC(C(=O)NC[C@H]2CCc3ccccc3O2)=C(O)C1=O` [Example 297, (R)-N-(chroman-2-ylmethyl)-1-ethyl-4-hydroxy-5-oxo-2,5-dihydro-1H-pyrrole-3-carboxamide], the half-inhibitory concentration (IC50) was determined as 6520 nM.

With `O=C(NCCCOc1ccccc1)C1=C(O)C(=O)N(CC(F)(F)F)C1` [Example 299, 4-hydroxy-5-oxo-N-(3-phenoxypropyl)-1-(2,2,2-trifluoroethyl)-2,5-dihydro-1H-pyrrole-3-carboxamide], the IC50 was determined as 2740 nM.

In the case of `C[C@@H](NC(=O)C1=C(O)C(=O)N(CC(F)(F)F)C1)c1ccc2ccccc2c1` [Example 300, (R)-4-hydroxy-N-(1-(naphthalen-2-yl)ethyl)-5-oxo-1-(2,2,2-trifluoroethyl)-2,5-dihydro-1H-pyrrole-3-carboxamide], the IC50 came to 3810 nM.

As for `CC(CCc1ccc(Cl)c(Cl)c1)NC(=O)C1=C(O)C(=O)N(CCC(=O)O)C1` (centres unmarked) [Example 344, 3-(4-(4-(3,4-dichlorophenyl)butan-2-ylcarbamoyl)-3-hydroxy-2-oxo-2,5-dihydro-1H-pyrrol-1-yl) propanoic acid], the IC50 is 575 nM.

With `CC(CCc1ccc(Cl)c(Cl)c1)NC(=O)C1=C(O)C(=O)N([C@H]2CCc3ccc(C(F)(F)F)cc32)C1` (stereo partly drawn) [Example 347, N-(4-(3,4-dichlorophenyl)butan-2-yl)-4-hydroxy-5-oxo-1-((S)-6-(trifluoromethyl)-2,3-dihydro-1H-inden-1-yl)-2,5-dihydro-1H-pyrrole-3-carboxamide], the IC50 was 500 nM.

Values taken from patent US8952180B2, “Pyrrolinone carboxamide compounds useful as endothelial lipase inhibitors” (Bristol-Myers Squibb Company, priority 2011, dated 2015).
